Measured values as given in publication PMC10743429, “Anti-Inflammatory Effects of Alphitolic Acid Isolated from Agrimonia coreana Nakai Extracts Are Mediated via the Inhibition of ICRAC Activity in T Cells” (International Journal of Molecular Sciences, 2023).

Molecular target: T1, ORAI1 (Homo sapiens, UniProt Q96D31)
T1 construct: ORAI1 transiently co-transfected with STIM1 in HEK293T cells; with STIM1
Assay: patch-clamp of ICRAC in HEK293T cells co-expressing ORAI1 and STIM1
Type: cell-based

T1 sequence (Q96D31 whole entry): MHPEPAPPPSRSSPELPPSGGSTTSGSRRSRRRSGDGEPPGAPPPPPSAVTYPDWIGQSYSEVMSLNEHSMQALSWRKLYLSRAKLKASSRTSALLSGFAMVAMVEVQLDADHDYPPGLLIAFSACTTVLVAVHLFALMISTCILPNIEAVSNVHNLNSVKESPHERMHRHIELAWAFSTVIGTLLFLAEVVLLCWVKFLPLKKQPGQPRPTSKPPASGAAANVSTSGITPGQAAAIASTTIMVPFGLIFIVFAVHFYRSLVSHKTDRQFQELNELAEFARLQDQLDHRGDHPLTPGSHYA
T1 sequence (Q13586 23-685 partner): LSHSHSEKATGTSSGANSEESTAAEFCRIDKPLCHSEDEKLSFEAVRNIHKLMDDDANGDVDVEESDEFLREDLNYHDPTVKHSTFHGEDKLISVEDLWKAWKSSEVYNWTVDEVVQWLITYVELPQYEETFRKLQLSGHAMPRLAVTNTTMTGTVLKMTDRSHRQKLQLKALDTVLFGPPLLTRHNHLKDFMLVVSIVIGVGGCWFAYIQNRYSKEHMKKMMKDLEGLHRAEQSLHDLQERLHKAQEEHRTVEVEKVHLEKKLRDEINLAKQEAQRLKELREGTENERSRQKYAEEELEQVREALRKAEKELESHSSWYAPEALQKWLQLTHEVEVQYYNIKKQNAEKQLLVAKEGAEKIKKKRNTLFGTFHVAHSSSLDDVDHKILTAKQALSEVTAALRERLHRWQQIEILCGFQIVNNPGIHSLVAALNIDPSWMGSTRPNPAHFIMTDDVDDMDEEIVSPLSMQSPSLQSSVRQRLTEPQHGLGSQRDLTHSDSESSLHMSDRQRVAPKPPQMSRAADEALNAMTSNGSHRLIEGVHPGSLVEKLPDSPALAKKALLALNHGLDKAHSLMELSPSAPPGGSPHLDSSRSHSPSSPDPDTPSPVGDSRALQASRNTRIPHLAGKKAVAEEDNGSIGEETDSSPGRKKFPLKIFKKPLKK

## C=C(C)[C@@H]1CC[C@]2(C(=O)O)CC[C@]3(C)[C@H](CC[C@@H]4[C@@]5(C)C[C@@H](O)[C@H](O)C(C)(C)[C@@H]5CC[C@]43C)[C@@H]12 [compound 1, alphitolic acid]
  IC50: 17.5 ± 2.46 µM
